Test results as given in patent publication US8314098B2, “Pyrazolo-pyrimidine compounds” (Ajinomoto Co., Inc., priority 2008, dated 2012).

What was measured:
Type in all cases: cell-based
[1] = system: IL-12p70 (the complex of IL-12p35 and p40); assay: IL-12p70 production inhibition in macrophages derived from mouse abdomen (IFN-γ/SAC stimulation, ELISA); conditions: Macrophage; mouse (Balb/c) abdominal macrophages, 100 ng/mL mouse IFN-γ + 0.05% SAC, overnight; TFA salts tested where prepared as such; read-out: IL-12p70-Inhibitory Activity IC50
How it was run: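 Thioglycolate-elicited adherent peritoneal macrophages from female Balb/c mice were collected 5–6 days after dosing. Cells were stimulated overnight with 100 ng/mL mouse IFN-γ plus 0.05% (v/v) killed S. aureus Cowan I, with compound present. IL-12p70, IL-12p40 and TNF-α in supernatants were measured by ELISA and IC50s derived, with cell survival also checked.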

TNF-α = TNF-α production inhibition in macrophages derived from mouse abdomen (IFN-γ/SAC stimulation, ELISA); conditions: Macrophage; mouse (Balb/c) abdominal macrophages, 100 ng/mL mouse IFN-γ + 0.05% SAC, overnight; TFA salts tested where prepared as such; read-out: TNF-α-Inhibitory Activity IC50
Procedure: One milliliter each of a 3% (w/v) thioglycolate solution was intraperitoneally administered to mice (female Balb/c mice), the abdominal cells of each mouse were recovered after 5 or 6 days from the administration of the thioglycolate solution and the adhesive cells were collected and used in the exaluation procedures. To a culture medium containing such adhesive cells, there were added 100 ng/mL of mouse interferon-γ and a 0.05% (v/v) liquid containing killed cells derived from Staphylococcus aureus Cowan I strain (SAC) and a candidate compound and then the mixture was cultivated overnight. After the completion of the cultivation, the survival ratios were determined, there were quantitatively determined the quantities of IL-12p70 (the complex of IL-12p35 and p40) and IL-12p40 or TNF-α according to the ELISA assays while making use of the recovered supernatant of the culture medium and the 50% production-inhibitory concentration (IC50) was calculated for each case (see Table 1 and Tables 1-9 for IL-12p70 and TNF-α and Tables 1 to 10 for IL-12p40).

[2] = system: IL-12p70 (the complex of IL-12p35 and p40); assay: IL-12p70 production inhibition in whole blood of mouse (IFN-γ/SAC stimulation, ELISA); conditions: mouse (Balb/c) whole blood, EDTA, 100 ng/mL mouse IFN-γ + 1.25% SAC, overnight; TFA salts tested where prepared as such
Procedure: The blood was recovered from the mice (female Balb/c mice) (containing added EDTA) and it was used for the evaluation. To a cell culture medium, there were added 100 ng/mL of mouse interferon-γ, 1.25% (v/v) of a liquid containing killed cells derived from Staphylococcus aureus Cowan I strain (SAC) and a candidate compound, the resulting mixture was diluted to a volume equivalent to the blood and then the diluted medium was cultivated overnight. After the completion of the cultivation, the amount of IL-12p70 (the complex of IL-12p35 and p40) was quantitatively determined according to the ELISA assays while making use of the recovered supernatant of the culture medium and the 50% production-inhibitory concentrations (IC50) were calculated for Compounds 38, 80, 82, 83, 84, 85, 87, 90 and 91. (see Table 3).

IC50 [1] [µM] | IC50 (TNF-α) [µM] | IC50 [2] [µM] | SMILES
0.0032 | > 10 | 4.2 | Cc1cccc(/C=N/Nc2cc(N3CCOCC3)n3nc(-c4ccc(N5CCOCC5)nc4)cc3n2)c1 [Compound 85, N-(3-methyl-benzylidene)-N′-[7-morpholin-4-yl-2-(6-morpholin-4-yl-pyridin-3-yl)-pyrazolo[1,5-a]pyrimidin-5-yl]-hydrazine]
0.049 | – | 3.8 | CCc1cccc(/C=N/Nc2cc(N3CCOCC3)n3nc(-c4cnccn4)cc3n2)c1 [Compound 116, N-(3-ethyl-benzylidene)-N-(7-morpholin-4-yl-2-pyrazin-2-yl-pyrazolo[1,5-a]pyrimidin-5-yl)-hydrazine]
0.0083 | – | 2.5 | Cc1cccc(/C=N/Nc2cc(N3CCOCC3)n3nc(-c4cnccn4)cc3n2)c1 [Compound 90, N-(3-methyl-benzylidene)-N′-(7-morpholin-4-yl-2-pyrazin-2-yl-pyrazolo[1,5-a]pyrimidin-5-yl)-hydrazine]
0.11 | – | 3.7 | C(=N\Nc1cc(N2CCOCC2)n2nc(-c3ccncc3)cc2n1)/c1cc2ccccc2s1 [Compound 108, N-benzo[b]thiophen-2-yl-methylidene-N′-(7-morpholin-4-yl-2-pyridin-4-yl-pyrazolo[1,5-a]pyrimidin-5-yl)-hydrazine]
0.05 | – | 1.1 | C(=N\Nc1cc(N2CCOCC2)n2nc(-c3ccncc3)cc2n1)/c1cc2ccccc2o1 [Compound 96]
0.029 | – | 0.64 | CCc1cccc(/C=N/Nc2cc(N3CCOCC3)n3nc(-c4ccncc4)cc3n2)c1 [Compound 118, N-(3-ethyl-benzylidene)-N-(7-morpholin-4-yl-2-pyridin-4-yl-pyrazolo[1,5-a]pyrimidin-5-yl)-hydrazine]
0.1 | – | 2.5 | C(=N\Nc1cc(N2CCOCC2)n2nc(-c3ccncc3)cc2n1)/c1ccc2[nH]ccc2c1 [Compound 104]
0.033 | > 10 | – | C(=N\Nc1cc(N2CCOCC2)n2nc(-c3ccccc3)cc2n1)/c1c[nH]c2ccccc12 [Compound 2, N-(1H-indol-3-yl-methylidene)-N′-(7-morpholin-4-yl-2-phenyl-pyrazolo[1,5-a]pyrimidin-5-yl)-hydrazine]
0.011 | > 10 | – | COc1ccc(-c2cc3nc(N/N=C/c4cccc(C)c4)cc(N4CCOCC4)n3n2)cc1 [Compound 15, N-{2-(4-methoxy-phenyl)-7-morpholin-4-yl-pyrazolo[1,5-a]pyrimidin-5-yl}-N′-(3-methyl-benzylidene)-hydrazine]
0.007 | > 10 | – | C(=N\Nc1cc(N2CCOCC2)n2nc(-c3ccccn3)cc2n1)/c1c[nH]c2ccccc12 [Compound 36, N-(1H-indol-3-yl-methylidene)-N′-(7-morpholin-4-yl-2-pyridin-2-yl-pyrazolo[1,5-a]pyrimidin-5-yl)-hydrazine]

Continued, compound first:

SMILES | IC50 [1] [µM] | IC50 (TNF-α) [µM] | IC50 [2] [µM]
Cc1cccc(/C=N/Nc2cc(N3CCOCC3)n3ncc(-c4ccccn4)c3n2)c1 [Compound 87, N-(3-methyl-benzylidene)-N′-(7-morpholin-4-yl-3-pyridin-2-yl-pyrazolo[1,5-a]pyrimidin-5-yl)-hydrazine] | – | – | 2.4
Cc1cccc(/C=N/Nc2cc(N3CCOCC3)n3nc(-c4ccnnc4)cc3n2)c1 [Compound 94, N-(3-methyl-benzylidene)-N-(7-morpholin-4-yl-2-pyridazin-4-yl-pyrazolo[1,5-a]pyrimidin-5-yl)-hydrazine] | 0.018 | – | 1
C(=N\Nc1cc(N2CCOCC2)n2nc(-c3ccncc3)cc2n1)/c1coc2ccccc12 [Compound 95] | 0.028 | – | 0.81
C(=N\Nc1cc(N2CCOCC2)n2nc(-c3ccncc3)cc2n1)/c1ccnc2ccccc12 [Compound 122, N-(7-morpholin-4-yl-2-pyridin-4-yl-pyrazolo[1,5-a]-pyrimidin-5-yl)-N′-quinolin-4-yl-methylidene-hydrazine] | 0.0056 | – | 2.4
C(=N\Nc1cc(N2CCOCC2)n2nc(-c3ccncc3)cc2n1)/c1c[nH]c2ncccc12 [Compound 126, N-(7-morpholin-4-yl-2-pyridin-4-yl-pyrazolo[1,5-a]-pyrimidin-5-yl)-N′-(1H-pyrrolo[2,3-b]pyridin-3-yl-methylidene)-hydrazine] | 0.11 | – | 0.76
C(=N\Nc1cc(N2CCOCC2)n2nc(-c3ccnnc3)cc2n1)/c1c[nH]c2ccccc12 [Compound 97, N-(1H-indol-3-yl-methylidene)-N-(7-morpholin-4-yl-2-pyridazin-4-yl-pyrazolo[1,5-a]pyrimidin-5-yl)-hydrazine] | 0.0083 | – | 3.2
Cc1cccc(/C=N/Nc2cc(N3CCOCC3)n3nc(-c4ccc(N5CCN(C(=O)OC(C)(C)C)CC5)cc4)cc3n2)c1 [Compound 19, N-[2-{4-(4-t-butoxycarbonyl-piperazin-1-yl)-phenyl}-7-morpholin-4-yl-pyrazolo[1,5-a]pyrimidin-5-yl]-N′-(3-methyl-benzylidene)-hydrazine] | 0.06 | > 10 | –
Nc1cccc(/C=N/Nc2cc(N3CCOCC3)n3nc(-c4ccccc4)cc3n2)c1 [Compound 140, N-(3-amino-benzylidene)-N-(7-morpholin-4-yl-2-phenyl-pyrazolo[1,5-a]pyrimidin-5-yl)-hydrazine] | 0.17 | > 10 | –
C(=N\Nc1cc(N2CCOCC2)n2nc(-c3ccncc3)cc2n1)/c1ccsc1 [Compound 91, N-(7-morpholin-4-yl-2-pyridin-4-yl-pyrazolo[1,5-a]-pyrimidin-5-yl)-N′-thiophen-3-yl-methylidene-hydrazine] | 0.048 | – | 4.6
Cc1cccc(/C=N/Nc2cc(N3CC4COCC4C3)n3nc(-c4ccncc4)cc3n2)c1 (stereo not drawn) [Compound 123, N-(3-methyl-benzylidene)-N′-[2-pyridin-4-yl-7-(tetrahydro-furo[3,4-c]pyrrol-5-yl)-pyrazolo[1,5-a]pyrimidin-5-yl]-hydrazine] | 0.3 | – | 0.44
C(=N\Nc1cc(N2CCOCC2)n2nccc2n1)/c1c[nH]c2ccccc12 [Compound 10, N-(1H-indol-3-yl-methylidene)-N′-(7-morpholin-4-yl-pyrazolo[1,5-a]pyrimidin-5-yl)-hydrazine] | 0.165 | > 10 | –
C(=N\Nc1cc(N2CCOCC2)n2nc(N3CCOCC3)cc2n1)/c1c[nH]c2ccccc12 [Compound 128, N-(1H-indol-3-yl-methylidene)-N-(2,7-di-morpholin-4-yl-pyrazolo[1,5-a]pyrimidin-5-yl)-hydrazine] | 0.14 | – | 4.6
Cc1cccc(/C=N/Nc2cc(N3CCOCC3)n3ncc(Br)c3n2)c1 [Compound 11, N-(3-bromo-7-morpholin-4-yl-pyrazolo[1,5-a]pyrimidin-5-yl)-N′-(3-methyl-benzylidene)-hydrazine] | 0.34 | > 10 | –
Cc1cccc(/C=N/Nc2cc(N3CCOCC3)n3nc(-c4ccc(N5CCNCC5)cc4)cc3n2)c1 [Compound 21, N-(3-methyl-benzylidene)-N′-{7-morpholin-4-yl-2-(4-piperazin-1-yl-phenyl)-pyrazolo[1,5-a]pyrimidin-5-yl}-hydrazine] | 0.022 | > 10 | –
